Measured values from US20080113038A1, “Composition For Promoting Osteogenesis And Increasing Bone Mineral Content” (priority 2004, published 2008).

Experiments:
[1] = test system: diaphysis and metaphysis tissues of rat femur; assay: Calcium level in bone tissues in a bone tissue culture system; settings: for Change of calcium levels in bone tissues (in words) / Calcium level in bone tissues, diaphysis part / Calcium level in bone tissues, metaphysis part / Change of calcium levels in bone tissues compared to the control group (in words): 48 h culture, β-cryptoxanthin 10^−9 M; for Calcium level in bone tissues, diaphysis part / Calcium level in bone tissues, metaphysis part: mean ± SD, 5 rats; for Change of calcium level in bone tissues (in words): higher concentration of 10^−5 M; for Change of calcium levels in bone tissues compared to the control group (in words): both diaphysis and metaphysis
Method: Rats (Wistar male rats; 4 weeks old, body weight 85-90 g; purchased from Japan SLC Ltd., and fed with solid Oriental yeast (MF)) were sacrificed under mild ether anesthesia. Muscle tissues around femur were removed completely, divided into diaphysis (cortical bone) and metaphysis (cancellous bone) tissues of femur, and then the bone marrow cells were washed and removed in a cold 0.25 M sucrose solution. The bone tissue pieces were cultured in a Dulbecco's modified Eagle's culture medium (serum-free, containing 50 units/ml penicillin and 50 μg/ml spretomycin, supplemented with 45 mg/ml glucose), in an CO2 incubator aseptically for 48 hours at 37° C. […] Bone tissues were put into a culture dish (with a diameter of 35 mm, made of plastic) added with 2.0 ml of the above mentioned culture solution, and cultured. After being cultured, bone tissues were washed well in a cold 0.25 M sucrose solution, dried at 100° C. for 5 hours, and weighed. Dried bone tissues were put into a test tube (15 ml), to which 2.0 ml of concentrated nitric acid was added, and the resultant was heated and degraded at 100° C. for 16 hours. After degradation, solution amount was measured. A specific amount thereof was diluted with purified distilled water, and calcium was determined by colorimetry (kit for measuring calcium, Wako Pure Chemical Industries). Calcium levels in bone tissues are indicated as mg per 1 g of dried weight of cultured bone tissues. In the above experiment, bone tissues obtained from one rat were put in one culture dish, and 5 culture dishes were used for 5 rats. 5 dishes were used for each of the control, β-cryptoxanthin alone group, zinc alone group, and the β-cryptoxanthin and zinc-combined group. […] A critical value of less than 5% was determined as having a significant difference.
In order to investigate the effect on calcium levels in bone tissues when β-cryptoxanthin and zinc, or genistein and menaquinone-7 are supplied in the bone tissue culture system, femur diaphysis and metaphysis tissues were cultured for 48 hours in a culture solution, in the same manner as in Example 1, and the calcium level in bone tissues was measured, compared and evaluated.

[2] = test system: alkaline phosphatase in bone tissues (femur diaphysis and metaphysis); assay: Alkaline phosphatase activity in bone tissues in a bone tissue culture system; format: cell-based, rat; settings: 48 h culture, β-cryptoxanthin 10^−9 M, zinc 10^−6 M; for Alkaline phosphatase activity in bone tissues, diaphysis part / Alkaline phosphatase activity in bone tissues, metaphysis part: mean ± SD, 5 rats; for Change of alkaline phosphatase activity in bone tissues compared to the control group (in words): diaphysis and metaphysis
Method: (§1) After degradation, solution amount was measured.
(§2) The expression level of alkaline phosphatase, which is the most important enzyme for promoting bone calcification, was examined. […] The resultant liquid was centrifuged. The supernatant, as an enzyme solution, was determined by a method of Walter and Schutt (in Method of Enzymatic Analysis, Vol. 1-2, p. 856, Academic Press, New York, 1965). Namely, this method was carried out as follows: p-nitrophenylphosphoric acid was used as a substrate; 0.05 ml of the enzyme solution was added to 2 ml of diethanolamine buffer (pH 9.8). After the incubation at 37° C. for 30 minutes, 10 ml of 0.05 N NaOH was added to the mixture.

[3] = test system: femur diaphysis and metaphysis tissues; assay: Calcium level in bone tissues by oral administration; format: in vivo, rat; settings: rats, β-cryptoxanthin 5 μg/100 g body weight, zinc 0.1 mg/100 g body weight; for Change of calcium level in diaphysis (in words) / Change of calcium level in metaphysis (in words): oral 7 days; for Calcium level in bone tissues, diaphysis part / Calcium level in bone tissues, metaphysis part: oral once a day for 7 days, femur 24 h after final administration
Method: as §1
(§3) 24 hours after the final administration, femur was extracted, and the change in calcium levels in diaphysis and metaphysis tissues was examined with the method of Example 1.

[4] = test system: femur diaphysis and metaphysis tissues; assay: DNA level in bone tissues by oral administration; format: in vivo, rat; settings: rats, β-cryptoxanthin 5 μg/100 g body weight, zinc 0.1 mg/100 g body weight; for Change of DNA level in diaphysis (in words) / Change of DNA level in metaphysis tissues (in words): oral 7 days; for DNA level in bone tissues, diaphysis part / DNA level in bone tissues, metaphysis part: oral once a day for 7 days
Method: (§4) DNA level was determined as an index of cell count in bone tissues. […] After osmosis at 4° C. for 24 hours, the liquid mixture was centrifuged. The supernatant was taken as a sample and determined by a method of Ceriotti et al. (J. Biol. Chem., 241; 34-77, 1951). Namely, 1 ml of concentrated hydrochloric acid and 1 ml of 0.04% indole solution were added to 2 ml of the sample and then the resultant mixture was heated to 100° C. in boiling water. After quenching followed by an extraction with 4 ml of chloroform, the chloroform layer was taken to determine bone DNA level with a spectrophotometer (490 nm).
as §3
The change of DNA level in diaphysis and metaphysis tissues which were extracted in the same manner as in Example 5 was examined with the method of Example 4.

[5] = test system: alkaline phosphatase in bone tissues (femur diaphysis and metaphysis); assay: Alkaline phosphatase activity in bone tissues by oral administration; format: in vivo, rat; settings: rats, β-cryptoxanthin 5 μg/100 g body weight, zinc 0.1 mg/100 g body weight; for Change of alkaline phosphatase activity in diaphysis and metaphysis tissues (in words): oral 7 days; for Alkaline phosphatase activity in bone tissues, diaphysis part / Alkaline phosphatase activity in bone tissues, metaphysis part: oral once a day for 7 days
Method: as §2, with “mixture. The absorbance (405 nm) was determined with a spectrophotometer to examine bone alkaline phosphatase activity of a therapeutic agent for bones and of a compound known to be effective for bones.” for “mixture.”
as §3
The change of alkaline phosphatase activity in diaphysis and metaphysis tissues which were extracted in the same manner as in Example 5 was examined with the method of Example 3.

bone protein synthesis = settings: non-patent document 4; cited from earlier work
[6] = test system: diaphysis and metaphysis tissues of rat femur; assay: DNA level in bone tissues in a bone tissue culture system; format: cell-based; settings: 48 h culture, β-cryptoxanthin 10^−9 M, zinc 10^−6 M; for DNA level in bone tissues, diaphysis part / DNA level in bone tissues, metaphysis part: mean ± SD, 5 rats; for Change of DNA level in bone tissues compared to the control group (in words): diaphysis and metaphysis
Method: as §1, §4

[7] = test system: diaphysis and metaphysis tissues of a femur; settings: cited from earlier work
[8] = Example 2, zinc, genistein, menaquinone-7 each 10^−6 M

In the case of `O=c1c(-c2ccc(O)cc2)coc2cc(O)cc(O)c12` [genistein, reference compound], the “Change of calcium levels in bone tissues (in words)” value [1, 8] is reported as “did not increase significantly”, the “Calcium level in bone tissues, diaphysis part” value (shortened to “Calcium level … diaphysis part”) [1, 8] is reported as 211.0 ± 7.93 mg/g bone dry weight and the “Calcium level in bone tissues, metaphysis part” value (from here on “Calcium level … metaphysis part”) [1, 8] is reported as 189.3 ± 6.40 mg/g bone dry weight. The “Change of calcium level in bone tissues (in words)” value [1] was “increasing significantly”.
For `CC(C)=CCC/C(C)=C/CC/C(C)=C/CC/C(C)=C/CC/C(C)=C/CC/C(C)=C/CC/C(C)=C/CC1=C(C)C(=O)c2ccccc2C1=O` [menaquinone-7, reference compound], the “Change of calcium levels in bone tissues (in words)” value [1, 8] was “did not increase significantly”, the “Calcium level … diaphysis part” value [1, 8] was 219.8 ± 4.20 mg/g bone dry weight and the “Calcium level … metaphysis part” value [1, 8] was 184.9 ± 2.70 mg/g bone dry weight. For the same molecule, the “Change of calcium level in bone tissues (in words)” value [1] was “increasing significantly”.
For `O=S(=O)([O-])[O-].[Zn+2]` [zinc, zinc sulfate], the “Alkaline phosphatase activity in bone tissues, diaphysis part” value [2] was 1.019 ± 0.061 μmol/min/mg protein, the “Alkaline phosphatase activity in bone tissues, metaphysis part” value [2] was 1.190 ± 0.079 μmol/min/mg protein and the “Change of alkaline phosphatase activity in bone tissues compared to the control group (in words)” value [2] was “did not change significantly”. The “Change of calcium level in diaphysis (in words)” value [3] was “did not induce a significant change”, the “Change of calcium level in metaphysis (in words)” value [3] was “did not induce a significant change” and the “Calcium level … diaphysis part” value [3] was 227.9 ± 4.3 mg/g dry mass. The “Calcium level … metaphysis part” value [3] was 178.6 ± 4.0 mg/g dry mass, the “Change of DNA level in diaphysis (in words)” value [4] was “did not induce a significant change” and the “Change of DNA level in metaphysis tissues (in words)” value [4] was “did not induce a significant change”. The “DNA level in bone tissues, diaphysis part” value (from here on “DNA level … diaphysis part”) [4] was 1.805 ± 0.154 mg/g bone wet weight, the “DNA level in bone tissues, metaphysis part” value (“DNA level … metaphysis part” for short) [4] was 3.278 ± 0.103 mg/g bone wet weight and the “Change of alkaline phosphatase activity in diaphysis and metaphysis tissues (in words)” value [5] was “did not induce a significant change”. The “Alkaline phosphatase activity in bone tissues, diaphysis part” value [5] was 1.725 ± 0.038 μmol/min/mg protein, the “Alkaline phosphatase activity in bone tissues, metaphysis part” value [5] was 1.170 ± 0.033 μmol/min/mg protein and the “Calcium level … diaphysis part” value ([1]; Example 1, zinc 10^−6 M) was 215.5 ± 2.01 mg/g bone dry weight. For the same molecule, the “Calcium level … metaphysis part” value ([1]; Example 1, zinc 10^−6 M) was 185.6 ± 1.56 mg/g bone dry weight, the “Change of calcium levels in bone tissues compared to the control group (in words)” value ([1]; Example 1, zinc 10^−6 M) was “did not change significantly” and the “Change of calcium levels in bone tissues (in words)” value [1, 8] was “did not increase significantly”. The “Calcium level … diaphysis part” value [1, 8] was 224.3 ± 2.90 mg/g bone dry weight, the “Calcium level … metaphysis part” value [1, 8] was 190.2 ± 2.53 mg/g bone dry weight and the “Concentration at which synthesis of bone protein is promoted” value (bone protein synthesis) was ≥ 10^−4 M. For the same molecule, the “DNA level … diaphysis part” value [6] was 1.471 ± 0.052 mg/g bone wet weight, the “DNA level … metaphysis part” value [6] was 3.025 ± 0.271 mg/g bone wet weight and the “Change of DNA level in bone tissues compared to the control group (in words)” value [6] was “did not change significantly”.
For `CC1=C(/C=C/C(C)=C/C=C/C(C)=C/C=C/C=C(C)/C=C/C=C(C)/C=C/C2=C(C)C[C@@H](O)CC2(C)C)C(C)(C)CCC1` [β-cryptoxanthin], the “Alkaline phosphatase activity in bone tissues, diaphysis part” value [2] was 1.010 ± 0.078 μmol/min/mg protein, the “Alkaline phosphatase activity in bone tissues, metaphysis part” value [2] was 1.122 ± 0.078 μmol/min/mg protein and the “Change of alkaline phosphatase activity in bone tissues compared to the control group (in words)” value [2] was “did not change significantly”. The “Change of calcium level in diaphysis (in words)” value [3] was “did not induce a significant change”, the “Change of calcium level in metaphysis (in words)” value [3] was “increased significantly” and the “Calcium level … diaphysis part” value [3] was 233.6 ± 6.8 mg/g dry mass. The “Calcium level … metaphysis part” value [3] was 190.1 ± 3.4 mg/g dry mass, the “Change of DNA level in diaphysis (in words)” value [4] was “did not induce a significant change” and the “Change of DNA level in metaphysis tissues (in words)” value [4] was “significant increase”. The “DNA level … diaphysis part” value [4] was 1.980 ± 0.251 mg/g bone wet weight, the “DNA level … metaphysis part” value [4] was 4.102 ± 0.055 mg/g bone wet weight and the “Change of alkaline phosphatase activity in diaphysis and metaphysis tissues (in words)” value [5] was “did not induce a significant change”. For the same molecule, the “Alkaline phosphatase activity in bone tissues, diaphysis part” value [5] was 1.703 ± 0.056 μmol/min/mg protein, the “Alkaline phosphatase activity in bone tissues, metaphysis part” value [5] was 1.159 ± 0.048 μmol/min/mg protein and the “Calcium level … diaphysis part” value ([1]; Example 1, zinc 10^−6 M) was 221.5 ± 3.95 mg/g bone dry weight. The “Calcium level … metaphysis part” value ([1]; Example 1, zinc 10^−6 M) was 189.5 ± 2.39 mg/g bone dry weight, the “Change of calcium levels in bone tissues compared to the control group (in words)” value ([1]; Example 1, zinc 10^−6 M) was “did not change significantly” and the “Change of calcium levels in bone tissues (in words)” value [1, 8] was “did not increase significantly”. For the same molecule, the “Calcium level … diaphysis part” value [1, 8] was 221.5 ± 3.45 mg/g bone dry weight, the “Calcium level … metaphysis part” value [1, 8] was 189.5 ± 3.44 mg/g bone dry weight and the “Effective concentration for promoting osteogenesis and increasing bone calcium level” value ([7]; 48-hour culture system of a bone tissue culture system, earlier report of the inventors) was 10^−8-10^−6 M. For the same molecule, the “Concentration at which osteogenesis is promoted and bone calcium increased” value ([7]; 48 h culture in a bone tissue culture system, patent document 10, non-patent document 2) was 10^−1 to 10^−6, the “Calcium level, bone calcification accelerating enzyme and DNA level in bone tissues (in words)” value ([7]; femur diaphysis and metaphysis tissues cultured in medium containing β-cryptoxanthin, earlier report of the inventors) was “significant increase” and the “DNA level … diaphysis part” value [6] was 1.358 ± 0.089 mg/g bone wet weight. The “DNA level … metaphysis part” value [6] was 3.141 ± 0.078 mg/g bone wet weight and the “Change of DNA level in bone tissues compared to the control group (in words)” value [6] was “did not change significantly”.
